Test results: US6417383B1, “Thermosensitive cyclotriphosphazene derivatives and a preparation method thereof” (Korea Institute of Science and Technology, priority 1999, dated 2002)

Experiment: LCST (lower critical solution temperature) measured by UV/VIS spectrophotometer
Format: physicochemical
Settings: lower critical solution temperature in water; Perkin-Elmer Lamda18 UV/VIS spectrophotometer
Procedure: Thermosensitivity in the present invention refers to the reversible phenomenon wherein a material is dissolved in water at a low temperature but precipitated as a result of the lowered solubility above at a critical temperature, and re-dissolved in water by lowering the temperature. This phenomenon is contradictory to the general phenomenon that solubility increases at higher temperatures. Thermosensitivity is often observed for water-soluble polymers that are dissolved below and precipitated above the so-called lower critical solution temperatures (LCST). Below the LCST, interaction between polymer and water molecules by hydrogen bonding is greater than the intermolecular hydrophobic interaction between polymer molecules, which results in dissolution of the polymer in water. As the temperature of the aqueous solution increases, however, the hydrogen bonding of the polymer-water molecules weakens whereas the hydrophobic interaction between the polymer molecules increases. As, the temperature of the aqueous solution reaches the LCST, the hydrophobic interaction becomes greater than the hydrogen bonding interaction between the polymer and water molecules resulting in the precipitation of the polymer in aqueous solution.
Elemental analysis of carbon, hydrogen, nitrogen in the compounds of the present invention was performed in the Special Analysis Center in our Institute by using a carbon, hydrogen and nitrogen analyzer (Perkin Eimer), and phosphorous analysis was performed using a Polyscan 61E ICP. Also, hydrogen and phosphorous nuclear magnetic resonance spectra were obtained using a Varian Gemini-300, and the LCST was measured by using a Perkin-Elmer Lamda18 UV/VIS spectrophotometer.

Row | Substance | LCST
1 | (2-(2′-Butoxyethoxy)ethoxy)(L-aspartoyldiethylester) cyclotriphosphazene [Example 7] | below 0 °C
2 | (2-(2′-Methoxyethoxy)ethoxy)(L-aspartoyldiethylester) cyclotriphosphazene [Example 4] | 47.5 °C
3 | (2-(2′-Methoxyethoxy)ethoxy)(L-glutamoyldiethylester) cyclotriphosphazene [Example 5] | 30.0 °C
4 | (2-(2′-Methoxyethoxy)ethoxy)(glycineethylester)cyclotriphosphazene [Example 1] | above 100 °C
5 | (2-(2′-Methoxyethoxy)ethoxy)-(aminomalonatodiethylester) cyclotriphosphazene [Example 3] | 39.0 °C
6 | (Poly(methoxyethyleneglycol350))(L-aspartoyldibenzylester)cyclotriphosphazene [Example 11] | 42.5 °C
7 | (Poly(methoxyethyleneglycol350))(L-aspartoyldiethylester) cyclotriphosphazene [Example 10] | 83.0 °C
8 | (Poly(methoxyethyleneglycol350))(aminomalonatoyl diethylester)cyclotriphosphazene [Example 9] | 95.0 °C
9 | (Poly(methoxyethyleneglycol750))(L-aspartoyldibenzylester) cyclotriphosphazene [Example 14] | 78.5 °C

The remaining lines, values ahead:

Row | LCST | Substance
10 | 16.5 °C | (2-(2′-Ethoxyethoxy)ethoxy)(L-aspartoyldiethylester) cyclotriphosphazene [Example 6]
11 | 10.5 °C | (2-(2′-Methoxyethoxy)ethoxy)(glycinebenzylester) cyclotriphosphazene [Example 2]
12 | 73.0 °C | (Poly(methoxyethyleneglycol350))(L-glutamoyldiethylester) cyclotriphosphazene [Example 12]
13 | 65.5 °C | (Poly(methoxyethyleneglycol350))(glycinebenzylester) cyclotriphosphazene [Example 8]
14 | 69.0 °C | (Poly(methoxyethyleneglycols550))L-aspartoyldibenzylester) cyclotriphosphazene [Example 13]
